MIC data for five compounds are collected here from patent US9993000B2, “Isosorbide ether derivatives with preservation activity” (BASF SE, priority 2015, dated 2018).

Holding throughout (assay): Minimum Inhibitory Concentration (MIC) according to DIN 58 940
Format in all cases: cell-based

The test system of one assay is Malassezia furfur. The settings on record: Malasse zia furfur. The text has this: (§1) MIC: Determination of Minimum Inhibitory Concentration (MIC) according to DIN 58 940
The test system of a further assay is Brevibacterium epidermis.
Description: as §1

The test system of a further assay is Aspergillus brasiliensis. The settings on record: Asperigillus brasiliensis.
Description: as §1

A further assay relates to Pseudomonas aeruginosa.
Description: as §1

For the next assay, the system named is Propionibacterium acnes.
Description: as §1

The subject of the next assay is Candida albicans.
Description: as §1

In the next assay the test system is Staphylococcus aureus.
Description: as §1

Another assay deals with Escherichia coli.
Description: as §1

The next assay concerns Staphylococcus epidermis.
Description: as §1

Each structure is given as a SMILES string. Where only a bound is given, the exact number is not on record here.

Regarding `CCCCCCCCOC1COC2C(O)COC12` (stereo not drawn) [Compound (1)], the MIC with Malassezia furfur is <1,000 ppm; against Brevibacterium epidermis it was less than 500 ppm; in the assay on Aspergillus brasiliensis it was less than 200 ppm; in the assay with Pseudomonas aeruginosa, <1,000 ppm; in the assay with Propionibacterium acnes it was less than 500 ppm; against Candida albicans, less than 50 ppm. Also, the MIC against Staphylococcus aureus is less than 500 ppm; in the assay with Escherichia coli, <1,000 ppm; against Staphylococcus epidermis it was less than 100 ppm.
In the case of `CCCCCCCCC(O)COC1COC2C(O)COC12` (stereo not drawn) [Compound (3)], the MIC with Malassezia furfur is not above 2500 ppm; in the assay with Brevibacterium epidermis, not above 200 ppm; against Aspergillus brasiliensis it was less than 1000 ppm; in the assay with Pseudomonas aeruginosa, <1,000 ppm; in the assay on Propionibacterium acnes, less than 50 ppm; against Candida albicans, not above 100 ppm. For the same compound, the values for the MIC against Staphylococcus aureus, in the assay on Escherichia coli and with Staphylococcus epidermis were less than 500 ppm, <2,000 ppm and not above 20 ppm, respectively.
Consider `CCCCCCCCCCCCOC1COC2C(O)COC12` (stereo not drawn) [Compound (2)], for which the MIC against Malassezia furfur is listed as 2,500 ppm; in the assay on Brevibacterium epidermis it was not above 20 ppm; with Aspergillus brasiliensis it was not above 20 ppm; against Pseudomonas aeruginosa it was >10,000 ppm; with Propionibacterium acnes it was not above 20 ppm; with Candida albicans, not above 20 ppm. The MIC against Staphylococcus aureus is on record as less than 50 ppm; with Escherichia coli it was >10,000 ppm; against Staphylococcus epidermis, not above 20 ppm.
For the compound `CCCCCCCCOC1COC2C(OCCCCCCCC)COC12` (stereo not drawn) [Comperative compound (1), reference compound], the MIC in the assay with Malassezia furfur, in the assay with Brevibacterium epidermis, with Aspergillus brasiliensis, in the assay with Pseudomonas aeruginosa, in the assay with Propionibacterium acnes and with Candida albicans was >10,000 ppm in each case. For the same compound, the MIC with Staphylococcus aureus is >10,000 ppm; in the assay on Escherichia coli, >10,000 ppm; in the assay on Staphylococcus epidermis, less than 200 ppm.
Regarding `CCCCCCCCCCC(O)COC1COC2C(O)COC12` (stereo not drawn) [Compound (4)], the MIC with Malassezia furfur is not above 20 ppm; against Brevibacterium epidermis, not above 20 ppm; in the assay on Aspergillus brasiliensis, less than 200 ppm; against Pseudomonas aeruginosa it was <1,000 ppm; against Propionibacterium acnes it was less than 100 ppm; against Candida albicans it was not above 20 ppm. Besides, the MIC in the assay with Staphylococcus aureus is listed as less than 100 ppm; with Escherichia coli, <2,000 ppm; in the assay on Staphylococcus epidermis, not above 20 ppm.
